{"source": "patent US8597616B2", "about": "(priority 2007, dated 2013)", "key": {"[1]": {"tested_on": "swine model of cardiac arrest", "conditions": "in vivo"}, "[2]": {"tested_on": "normovolemic swine model", "conditions": "in vivo"}}, "data": [{"smiles": "CNC[C@H](O)c1ccc(O)c(O)c1", "note": "[epinephrine, (R)-4-(1-hydroxy-2-(methylamino)ethyl)benzene-1,2-diol]", "values": [{"measurement": "peak MAP", "setting": "[1]", "result": 90, "unit": "mmHg"}, {"measurement": "sustained pressure over baseline", "setting": "[1]", "result": "greater than 50 mmHg"}, {"measurement": "time post injection at which increases in MAP were detected", "setting": "[1]", "result": "10 to 20", "unit": "s"}, {"measurement": "time post injection to peak MAP", "setting": "[1]", "result": "≤ 60", "unit": "s"}, {"measurement": "time to MAP peak at sustained pressure over baseline", "setting": "[1]", "result": "≤ 80", "unit": "s"}, {"measurement": "time until physiological effects (increase in MAP over baseline MAP) were detected", "setting": "[1]", "result": "< 20", "unit": "seconds"}, {"measurement": "time until rapid and sustained MAP occurred", "setting": "[1]", "result": "< 60", "unit": "s"}, {"measurement": "increase of MAP over baseline", "setting": "[2]", "result": "more than 60 mmHg"}, {"measurement": "time post injection at which increases in MAP were detected", "setting": "[2]", "result": "10 to 20", "unit": "s"}, {"measurement": "time post injection to peak MAP", "setting": "[2]", "result": "≤ 60", "unit": "s"}, {"measurement": "sustained MAP", "setting": "[2]; 0.4 mg/kg", "result": "more than 60 mmHg"}, {"measurement": "time post-injection at which an increase in MAP was detected", "setting": "[2]; iv", "result": 30, "unit": "s"}, {"measurement": "time from administration until absorbed and placed into the circulating blood", "setting": "[2]; swine", "result": "10 to 20", "unit": "s"}]}]}
